According to patent US20140227366A1, “CARRIER MATERIAL FOR IMPROVING THE PERSISTANCE OF BIOCIDES” (priority 2011, published 2014):

Test system: aphids (Aphis craccivora)
Test: Efficacy/penetration depth into soils: aphid mortality on chickpeas planted in soil zones from a watered soil column
Assay type: in vivo
Settings: top 6 cm soil with 0.5 mg/ai TMX, watering rate 255 l/m^2, chickpeas infected with Aphis craccivora, average of multiple experiments
Protocol: The penetration depth of TMX with and without the improvement system was investigated using the test setup described below.
In this connection, a cylinder (diameter approx. 5.5 cm) was filled to approx. 21 cm with liquid-saturated soil. The soil was divided into three zones of 7 cm each, which were called Zone I (uppermost soil layer), Zone II (middle soil layer), and Zone III (bottommost soil layer).
Subsequently, the cylinder was filled up with 6 cm soil that had been mixed once with 0.5 mg/ai TMX (comparison test), and once with 6 cm soil with 0.5 mg/ai TMX and 2 kg/m^2 improvement system (invention example).
The cylinder was now watered (watering rate 255 l/m^2) until the water had reached the bottom, i.e. complete watering had been achieved.
Subsequently, the soil of Zone I (uppermost zone) to Zone III (bottommost zone) was removed, and chickpeas that had been infected with aphids (Aphis craccivora) were planted in the soil. Now the mortality rate of the aphids was measured, as listed in Table I (average values on the basis of multiple experiments).

Compound: CN1COCN(Cc2cnc(Cl)s2)/C1=N/[N+](=O)[O-] [Comparison example, 3-[(2-chloro-1,3-thiazol-5-yl)methyl]-5-methyl-N-nitro-1,3,5-oxadioazinan-4-imine]
- mortality rate of the aphids, Zone I (Zone I (uppermost soil layer, 7 cm)): 93%
- mortality rate of the aphids, Zone II (Zone II (middle soil layer, 7 cm)): 70%
- mortality rate of the aphids, Zone III (Zone III (bottommost soil layer, 7 cm)): 5%
